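Results reflect a 48-hour exposure of cells in 96-well plates to compound at five concentrations. Abbreviation: GI50, concentration required for 50% inhibition of growth.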 Calls of active or inactive are those of the source. No stated cut-off is given here; in the data, active = GI50 up to about 1.1 µM and inactive = higher.
Key:
Experiment in all cases: NCI tumour cell line growth inhibition, 48 h
A549 = test system: A549
CAKI-1 = test system: CAKI-1
CCRF-CEM = test system: CCRF-CEM
EKVX = test system: EKVX
HCT-15 = test system: HCT-15
IGROV-1 = test system: IGROV-1
MCF7 = test system: MCF7
NCI-H23 = test system: NCI-H23
OVCAR-4 = test system: OVCAR-4
PC-3 = test system: PC-3
SK-MEL-2 = test system: SK-MEL-2
SN12C = test system: SN12C
SNB-19 = test system: SNB-19
SNB-75 = test system: SNB-75
T47D = test system: T47D
U-251 = test system: U-251
UACC-257 = test system: UACC-257
DMS-114 = test system: DMS-114

| Structure (SMILES) | GI50 (A549) | GI50 (CAKI-1) | GI50 (CCRF-CEM) | GI50 (EKVX) | GI50 (HCT-15) | GI50 (IGROV-1) | GI50 (MCF7) | GI50 (NCI-H23) | GI50 (OVCAR-4) | GI50 (PC-3) | GI50 (SK-MEL-2) | GI50 (SN12C) | GI50 (SNB-19) | GI50 (SNB-75) | GI50 (T47D) | GI50 (U-251) | GI50 (UACC-257) | GI50 (DMS-114) |
| --- | --- | --- | --- | --- | --- | --- | --- | --- | --- | --- | --- | --- | --- | --- | --- | --- | --- | --- |
| FC(F)(F)c1cccc(-c2nc3nc(Cl)c(Cl)nc3[nH]2)c1 | 2 µM (inactive) | 2.73 µM (inactive) | 1.95 µM (inactive) | 2.96 µM (inactive) | 2.64 µM | 2.99 µM (inactive) | 0.0241 µM (active) | 1.47 µM (inactive) | 2.28 µM (inactive) | 2.5 µM (inactive) | 1.56 µM (inactive) | 2.69 µM (inactive) | 3.27 µM (inactive) | 2.42 µM (inactive) | 1.29 µM (inactive) | 1.85 µM (inactive) | 2.22 µM (inactive) |  |
| N#C[C@H](C(=O)c1ccccc1F)c1nc2ccccc2[nH]1 | > 100 µM (inactive) | > 100 µM (inactive) | 53 µM (inactive) | > 100 µM (inactive) | > 100 µM | 60.7 µM (inactive) | 92 µM (inactive) | > 100 µM (inactive) | > 100 µM (inactive) | > 100 µM (inactive) | > 100 µM (inactive) | > 100 µM (inactive) | > 100 µM (inactive) | 82.6 µM (inactive) | > 100 µM (inactive) | > 100 µM (inactive) | > 100 µM (inactive) |  |
| Cc1cn(C2CC(n3cc(Cn4cc(F)c(=O)[nH]c4=O)nn3)C(CO)O2)c(=O)[nH]c1=O (stereo unspecified) | > 100 µM (inactive) | > 100 µM (inactive) | > 100 µM (inactive) | > 100 µM (inactive) | > 100 µM | > 100 µM (inactive) | > 100 µM (inactive) | > 100 µM (inactive) | > 100 µM (inactive) | > 100 µM (inactive) | > 100 µM (inactive) | > 100 µM (inactive) | > 100 µM (inactive) | > 100 µM (inactive) | > 100 µM (inactive) | > 100 µM (inactive) | > 100 µM (inactive) |  |
| CCOC(=O)c1nc2ccccc2nc1Nc1ccc(OC)cc1 | 51.2 µM (inactive) | 13.8 µM (inactive) | > 100 µM (inactive) | 47.8 µM (inactive) | > 100 µM | 50.6 µM (inactive) | > 100 µM (inactive) | 54.2 µM (inactive) | 18.5 µM (inactive) | 31.4 µM (inactive) | 33.7 µM (inactive) | 14.8 µM (inactive) | 16.5 µM (inactive) | 37.9 µM (inactive) | 43.5 µM (inactive) | 35.1 µM (inactive) | 49.5 µM (inactive) |  |
| c1ccc2c(c1)CCc1c-2n(CCN2CCCCC2)c2ccccc12 | 18.7 µM (inactive) | 16.6 µM (inactive) | 15.6 µM (inactive) | 20.4 µM (inactive) | 10.6 µM | 11.4 µM (inactive) | 15.2 µM (inactive) | 17.7 µM (inactive) | 18.8 µM (inactive) | 11.8 µM (inactive) | 16.3 µM (inactive) | 17.3 µM (inactive) | 26 µM (inactive) | 16.4 µM (inactive) | 15.5 µM (inactive) | 14.3 µM (inactive) | 17.2 µM (inactive) |  |
| C/C(CC(=O)Nc1cccc([N+](=O)[O-])c1)=N/NC(N)=S | > 100 µM (inactive) |  | > 100 µM (inactive) | > 100 µM (inactive) |  | > 100 µM (inactive) |  | > 100 µM (inactive) |  |  | > 100 µM (inactive) |  |  | > 100 µM (inactive) |  | > 100 µM (inactive) | > 100 µM (inactive) | > 100 µM (inactive) |
| COC(=O)c1c(C)cc(OC)c(C/C=C(\C)CCCc2coc(C=C(C)C)c2)c1OC | > 100 µM (inactive) | > 100 µM (inactive) | 41.5 µM (inactive) | > 100 µM (inactive) | > 100 µM | > 100 µM (inactive) | > 100 µM (inactive) | > 100 µM (inactive) | > 100 µM (inactive) | > 100 µM (inactive) | > 100 µM (inactive) | > 100 µM (inactive) | > 100 µM (inactive) | 21.3 µM (inactive) | 43 µM (inactive) | > 100 µM (inactive) | > 100 µM (inactive) |  |
| COc1cc2c3cc1Oc1c(OC)c(OC)cc4c1C(Cc1ccc(O)c(c1)Oc1ccc(cc1)CC3N(C)CC2)CN(C)C4 (stereo unspecified) | 22.5 µM (inactive) | 20.2 µM (inactive) | 2.07 µM (inactive) | 19 µM (inactive) | 14 µM | 20.5 µM (inactive) | 16.4 µM (inactive) | 16.9 µM (inactive) | 17.6 µM (inactive) | 21.1 µM (inactive) | 18.3 µM (inactive) | 15.8 µM (inactive) | 24.3 µM (inactive) | 14.2 µM (inactive) | 22.1 µM (inactive) | 12.3 µM (inactive) | 13.5 µM (inactive) |  |
| COC(=O)c1cc(C)ccc1C1CN=NC12Cc1c(C)cc(C)cc1C2=O (stereo unspecified) | 26.7 µM (inactive) | 31.4 µM (inactive) | 26.5 µM (inactive) | 33.5 µM (inactive) | 22.5 µM | 38.2 µM (inactive) | 20.6 µM (inactive) | 19.1 µM (inactive) | 16.9 µM (inactive) | 27.5 µM (inactive) | 16.4 µM (inactive) | 28.6 µM (inactive) | 31 µM (inactive) | 23.9 µM (inactive) | 31 µM (inactive) | 27 µM (inactive) | 23.9 µM (inactive) |  |
